Like-named read-outs stand apart in the source and are kept apart here.
Legend:
HCV replicon 1A = assay: Cell-based HCV Replicon Assay A, replicon 1A
Procedure: (§1) To measure cell-based anti-HCV activity of compounds of the present invention, two complimentary assays were employed using various replicons. In the first assay (“Replicon Assay A”), replicon cells were seeded at 2000 cells/well in 384-well 384-well flat bottom tissue culture treated clear bottom plate (Corning 3707) in the presence of the test compound. Various concentrations of test compound, typically in 10 serial dilutions, were added to the assay mixture, with the starting concentration ranging from 333.3 nM to […]. The final concentration of DMSO was 0.5%. Fetal bovine serum was 5%, in the assay media. Cells were harvested on day 3 by removing media and washing the cells with a suitable wash buffer. The cells are lysed with the addition of 1× Qiagen lysis buffer (Cat #1062731). The replicon RNA level was measured using real time PCR (TaqMan® EZ RT-PCR, Applied Biosystems 403028) with the following primers and probes: […]
(§2) Cyclophilin RNA was used as endogenous control and was amplified in the same reaction as NS5B (multiplex PCR). The real-time RT-PCR reactions were run on ABI PRISM 7900HT Sequence Detection System using the following program: 50° C. for 2 minutes, 60° C. for 30 minutes, 95° C. for 5 minutes, 40 cycles of 94° C. for 20 sec, 55° C. for 1 minutes.
(§3) The amount of HCV replicon RNA per cell is quantified using a linear regression curve for a known nanogram (ng) amount of HCV replicon total RNA. This is established by plotting the Cycle Threshold values (Ct) from the Neo probe and primer set versus the log (ng) for each HCV replicon total RNA standard. The amount of HCV RNA for each replicon sample is calculated by taking the sample's Ct value, minus the line intercept, divided by the slope of the line. Similarly, the amount of Cyclophilin mRNA per cell is also quantified using a linear regression curve for a known nanogram (ng) amount of HCV replicon total RNA. Again, this is established by plotting the Cycle Threshold values (Ct) from the Cyclophilin probe and primer set versus the log (ng) for each HCV replicon total RNA standard.
(§4) Data was obtained for various compounds of the present invention using the methods described in the Example above, and is presented in the table immediately below. Data for replicons 1A, 1AY93H and 2B were obtained using Replicon Assay A and data for replicons 1AQ30D and 1B were obtained using Replicon Assay B.

HCV replicon 1AY93H = assay: Cell-based HCV Replicon Assay A, replicon 1AY93H
Procedure: as §1, §2, §3, §4

HCV replicon 2B = assay: Cell-based HCV Replicon Assay A, replicon 2B
Procedure: as §1, §2, §3, §4

[1] = Hepatitis C virus, read-out: 1A Y93H IC50 (nM), replicon 1AY93H
[2] = Hepatitis C virus, read-out: 2B IC50 (nM), replicon 2B
[3] = read-out: 1A Y93H IC50, replicon 1AY93H
[4] = replicon 1AY93H, read-out: 1A Y93H IC50

| SMILES | IC50 (HCV replicon 1A; Hepatitis C virus) [nM] | IC50 (HCV replicon 1AY93H; [1]) [nM] | IC50 (HCV replicon 2B; [2]) [nM] | IC50 (HCV replicon 1AY93H; [3]) [nM] | IC50 (HCV replicon 2B; read-out: 2B IC50, replicon 2B) [nM] | IC50 (HCV replicon 1A) [nM] | IC50 (HCV replicon 1AY93H; [4]) [nM] | IC50 (HCV replicon 2B; replicon 2B, read-out: 2B IC50) [nM] |
| --- | --- | --- | --- | --- | --- | --- | --- | --- |
| CCN(CC)c1ncc(C2Oc3cc(-c4cnc([C@@H]5CCCN5C(=O)[C@@H](NC(=O)OC)C(C)C)[nH]4)cc(F)c3-c3cc4cc(-c5cnc([C@@H]6CCCN6C(=O)[C@@H](NC(=O)OC)C(C)C)[nH]5)ccc4n32)s1 (mixture of isomers) [Compound 404] | 0.012 | 0.0386 | 0.206 |  |  |  |  |  |
| COC(=O)N[C@H](C(=O)N1CCC[C@H]1c1ncc(-c2cc(F)c3c(c2)OC(c2cnc(-c4cnn(C)c4)s2)n2c-3cc3cc(-c4cnc([C@@H]5CCCN5C(=O)[C@@H](NC(=O)OC)C(C)C)[nH]4)ccc32)[nH]1)C(C)C (mixture of isomers) [Compound 425] | 0.0069 | 0.534 | 1.78 |  |  |  |  |  |
| COC(=O)NC(C(=O)N1[C@@H]2C[C@@H]2C[C@H]1c1ncc(-c2ccc3c(c2)cc2n3C(c3cnc(C(C)(C)C)s3)Oc3cc(-c4cnc([C@@H]5CCCN5C(=O)[C@@H](NC(=O)OC)C(C)C)[nH]4)cc(F)c3-2)[nH]1)C(C)C (single isomer, unassigned) [Compound 323] | 0.0032 |  |  | 0.0051 | 0.078 |  |  |  |
| COC(=O)NC(C(=O)N1CCC[C@H]1c1ncc(-c2ccc3c(c2)cc2n3C(c3cnc(CC(C)C)s3)Oc3cc(-c4cnc([C@@H]5CCCN5C(=O)[C@@H](NC(=O)OC)C(C)C)[nH]4)cc(F)c3-2)[nH]1)C1CCOC(C)(C)C1 (single isomer, unassigned) [Compound 542] |  |  |  | 0.495 | 0.124 | 0.0014 |  |  |
| COC(=O)NC(C(=O)N1CCC[C@H]1c1ncc(-c2ccc3c(c2)cc2n3C(c3cnc(CC4CC4)s3)Oc3cc(-c4cnc([C@@H]5CCCN5C(=O)[C@@H](NC(=O)OC)C(C)C)[nH]4)cc(F)c3-2)[nH]1)C1CCOC(C)(C)C1 (single isomer, unassigned) [Compound 538] |  |  |  |  |  | 0.0012 | 0.579 | 0.117 |
| COC(=O)N[C@H](C(=O)N1CCC[C@H]1c1ncc(-c2cc(F)c3c(c2)OC(c2ncc(C4CC4)s2)n2c-3cc3cc(-c4cnc([C@@H]5CCCN5C(=O)[C@@H](NC(=O)OC)C(C)C)[nH]4)ccc32)[nH]1)C(C)C (single isomer, unassigned) [Compound 8] |  |  |  | 0.15 | 0.14 | 0.0017 |  |  |
| CCCc1ncc(C2Oc3cc(-c4cnc([C@@H]5CCCN5C(=O)[C@@H](NC(=O)OC)C(C)C)[nH]4)cc(F)c3-c3cc4cc(-c5cnc([C@@H]6C[C@H]7C[C@H]7N6C(=O)[C@@H](NC(=O)OC)C(C)C)[nH]5)ccc4n32)s1 (single isomer, unassigned) [Compound 91] |  |  |  | 0.0537 | 0.17 | 0.0021 |  |  |
| CCCc1ncc(C2Oc3cc(-c4cnc([C@@H]5CCCN5C(=O)[C@@H](NC(=O)OC)C(C)C)[nH]4)cc(F)c3-c3cc4cc(-c5cnc([C@@H]6CCCN6C(=O)C(NC(=O)OC)C6CCOC(C)(C)C6)[nH]5)ccc4n32)s1 (single isomer, unassigned) [Compound 58] | 0.0026 |  |  | 0.0086 | 0.003 |  |  |  |
| COC(=O)NC(C(=O)N1CCC[C@H]1c1ncc(-c2ccc3c(c2)cc2n3C(c3cnc(-c4ccc(F)cc4)s3)Oc3cc(-c4cnc([C@@H]5CCCN5C(=O)[C@@H](NC(=O)OC)C(C)C)[nH]4)cc(F)c3-2)[nH]1)C1C[C@@H](C)O[C@@H](C)C1 (single isomer, unassigned) [Compound 80] | 0.0015 |  |  | 0.0504 | 0.047 |  |  |  |
| COC(=O)N[C@H](C(=O)N1CCC[C@H]1c1ncc(-c2cc(F)c3c(c2)OC(c2cscn2)n2c-3cc3cc(-c4cnc([C@@H]5CCCN5C(=O)[C@@H](NC(=O)OC)C(C)C)[nH]4)ccc32)[nH]1)C(C)C (single isomer, unassigned) [Compound 431] |  |  |  | 0.56 | 3.1 | 0.033 |  |  |
| COC(=O)N[C@H](C(=O)N1CCC[C@H]1c1ncc(-c2cc(F)c3c(c2)OC(c2ncc(C4CC4)s2)n2c-3cc3cc(-c4cnc([C@@H]5CCCN5C(=O)[C@@H](NC(=O)OC)C(C)C)[nH]4)ccc32)[nH]1)C(C)C (single isomer, unassigned) [Compound 7] | 0.0014 |  |  | 4.23 | 2.14 |  |  |  |
| COC(=O)N[C@H](C(=O)N1CCC[C@H]1c1ncc(-c2cc(F)c3c(c2)OC(c2cnc(-c4ccc(F)cc4)s2)n2c-3cc3cc(-c4cnc([C@@H]5CCCN5C(=O)[C@@H](NC(=O)OC)C(C)C)[nH]4)ccc32)[nH]1)C(C)C (single isomer, unassigned) [Compound 32] |  |  |  | 0.344 | 0.231 | 0.0012 |  |  |
| COC(=O)NC(C(=O)N1CCC[C@H]1c1ncc(-c2ccc3c(c2)cc2n3C(c3cnc(CC(C)C)s3)Oc3cc(-c4cnc([C@@H]5CCCN5C(=O)[C@@H](NC(=O)OC)C(C)C)[nH]4)cc(F)c3-2)[nH]1)C1C[C@@H](C)O[C@@H](C)C1 (single isomer, unassigned) [Compound 546] | 0.0014 |  |  | 0.315 | 0.165 |  |  |  |
| COC(=O)N[C@H](C(=O)N1CCC[C@H]1c1ncc(-c2cc(F)c3c(c2)OC(c2nc4c(s2)CCC4)n2c-3cc3cc(-c4cnc([C@@H]5CCCN5C(=O)[C@@H](NC(=O)OC)C(C)C)[nH]4)ccc32)[nH]1)C(C)C (single isomer, unassigned) [Compound 505] |  |  |  | 0.152 | 0.22 | 0.0015 |  |  |
| COC(=O)N[C@H](C(=O)N1CCC[C@H]1c1ncc(-c2cc(F)c3c(c2)OC(c2cnc(CC4CC4)s2)n2c-3cc3cc(-c4cnc([C@@H]5CCCN5C(=O)[C@@H](NC(=O)OC)C(C)C)[nH]4)ccc32)[nH]1)C(C)C (single isomer, unassigned) [Compound 510] |  |  |  |  |  | 0.001 | 0.629 | 0.624 |
| COC(=O)NC(C(=O)N1CCC[C@H]1c1ncc(-c2ccc3c(c2)cc2n3C(c3cnc(C4CCC4)s3)Oc3cc(-c4cnc([C@@H]5CCCN5C(=O)[C@@H](NC(=O)OC)C(C)C)[nH]4)cc(C)c3-2)[nH]1)C1C[C@@H](C)O[C@@H](C)C1 (single isomer, unassigned) [Compound 218] | 0.002 |  |  | 0.12 | 0.035 |  |  |  |
| CCC(CC)c1ncc(C2Oc3cc(-c4cnc([C@@H]5CCCN5C(=O)[C@@H](NC(=O)OC)C(C)C)[nH]4)cc(F)c3-c3cc4cc(-c5cnc([C@@H]6CCCN6C(=O)[C@@H](NC(=O)OC)C(C)C)[nH]5)ccc4n32)s1 (single isomer, unassigned) [Compound 421] |  | 0.014 | 0.103 |  |  | 0.0037 |  |  |
| COC(=O)N[C@H](C(=O)N1CCC[C@H]1c1ncc(-c2cc(F)c3c(c2)OC(c2cnc(C4CC4)s2)n2c-3cc3cc(-c4cnc([C@@H]5CCCN5C(=O)[C@@H](NC(=O)OC)C(C)C)[nH]4)ccc32)[nH]1)C(C)C (single isomer, unassigned) [Compound 9] | 0.0016 |  |  | 0.86 | 1.56 |  |  |  |
| COC(=O)NC(C(=O)N1[C@@H]2C[C@@H]2C[C@H]1c1ncc(-c2ccc3c(c2)cc2n3C(c3cnc(C(C)(C)C)s3)Oc3cc(-c4cnc([C@@H]5CCCN5C(=O)[C@@H](NC(=O)OC)C(C)C)[nH]4)cc(F)c3-2)[nH]1)C(C)C (single isomer, unassigned) [Compound 324] |  |  |  | 0.263 | 1.67 | 0.002 |  |  |
| COC(=O)N[C@H](C(=O)N1CCC[C@H]1c1ncc(-c2cc(F)c3c(c2)OC(c2cnc(-c4ccncn4)s2)n2c-3cc3cc(-c4cnc([C@@H]5CCCN5C(=O)[C@@H](NC(=O)OC)C(C)C)[nH]4)ccc32)[nH]1)C(C)C (stereo partly drawn) [Compound 503] | 0.0022 | 0.149 | 0.362 |  |  |  |  |  |
| CCc1nnc(C2Oc3cc(-c4cnc([C@@H]5CCCN5C(=O)[C@@H](NC(=O)OC)C(C)C)[nH]4)cc(F)c3-c3cc4cc(-c5cnc([C@@H]6CCCN6C(=O)C(NC(=O)OC)C(C)C)[nH]5)ccc4n32)s1 (single isomer, unassigned) [Compound 115] |  | 0.79 |  |  |  | 0.008 |  |  |
| COC(=O)NC(C(=O)N1[C@@H]2C[C@@H]2C[C@H]1c1ncc(-c2ccc3c(c2)cc2n3C(c3cnc(C(C)C)s3)Oc3cc(-c4cnc([C@@H]5CCCN5C(=O)[C@@H](NC(=O)OC)C(C)C)[nH]4)cc(F)c3-2)[nH]1)C1CCOC(C)(C)C1 (single isomer, unassigned) [Compound 69] |  |  |  | 2.87 |  | 0.0424 |  |  |
| CCc1ncc(C2Oc3cc(-c4cnc([C@@H]5CCCN5C(=O)[C@@H](NC(=O)OC)C(C)C)[nH]4)cc(F)c3-c3cc4cc(-c5cnc([C@@H]6CCCN6C(=O)C(NC(=O)OC)C6CCOC(C)(C)C6)[nH]5)ccc4n32)s1 (single isomer, unassigned) [Compound 38] |  |  |  | 0.204 |  | 0.0029 |  |  |
